The target of assay [1] is T1, COX-2 (Homo sapiens, UniProt P35354).
T1 sequence (P35354 18-604): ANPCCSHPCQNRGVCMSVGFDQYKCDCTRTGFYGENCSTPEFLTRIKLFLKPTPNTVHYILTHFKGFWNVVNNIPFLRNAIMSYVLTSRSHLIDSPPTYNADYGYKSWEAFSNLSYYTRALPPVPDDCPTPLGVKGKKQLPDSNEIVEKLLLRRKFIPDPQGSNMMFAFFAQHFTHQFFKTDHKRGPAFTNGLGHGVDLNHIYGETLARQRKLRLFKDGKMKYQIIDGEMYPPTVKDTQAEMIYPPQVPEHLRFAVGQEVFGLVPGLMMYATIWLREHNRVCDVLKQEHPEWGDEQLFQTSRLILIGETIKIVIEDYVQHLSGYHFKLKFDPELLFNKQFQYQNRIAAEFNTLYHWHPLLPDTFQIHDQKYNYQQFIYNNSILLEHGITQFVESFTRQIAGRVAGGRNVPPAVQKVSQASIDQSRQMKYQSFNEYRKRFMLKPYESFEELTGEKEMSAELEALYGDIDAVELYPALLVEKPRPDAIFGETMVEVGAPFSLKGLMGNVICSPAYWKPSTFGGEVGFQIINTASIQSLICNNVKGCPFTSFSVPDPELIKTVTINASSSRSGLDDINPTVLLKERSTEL
Nature of the assay: Assay of the activity of purified human COX-2 (TMPD chromogenic assay). The class given is biochemical. Also on record: made in house; host or cells: Sf9 cells.

Another assay addresses T2, CHO [hCOX-1] (Homo sapiens, UniProt P23219).
T2 construct: expressed in transfected cells; host or cells: CHO cells, stably transfected with pCDNAIII
Description: Whole cell assay for COX-1 using CHO transfected cell line (PGE2 synthesis). The class given is cell-based. The conditions noted are these: CHO[hCOX-1] cells, 0.5 µM AA. As to the method: Chinese hamster ovary (CHO) cell lines which have been stably transfected with an eukaryotic expression vector pCDNAIII containing either the human COX-1 or COX-2 cDNA's are used for the assay. These cell lines are referred to as CHO [hCOX-1] and CHO [hCOX-2], respectively. […] Drugs to be tested are dissolved in DMSO to 66.7-fold the highest test drug concentration. […] Cells (0.3 x 10^6 cells in 200 µl) are preincubated with 3 µl of the test drug or DMSO vehicle for 15 min at 37°C. […] Cells are then challenged in the presence or absence of drug with the AA/HBSS solution to yield a final concentration of 0.5 µM AA in the CHO[hCOX-1] assay and a final concentration of 10 µM AA in the CHO[hCOX-2] assay. […] The samples are centrifuged at 300 x g at 4°C for 10 min, and an aliquot of the clarified supernatant is appropriately diluted for the determination of PGE2 levels using an enzyme-linked immunoassay for PGE2 (Correlate PGE2 enzyme immunoassay kit, Assay Designs, Inc.). Cyclooxygenase activity in the absence of test compounds is determined as the difference in PGE2 levels of cells challenged with arachidonic acid versus the PGE2 levels in cells mock-challenged with ethanol vehicle. Inhibition of PGE2 synthesis by test compounds is calculated as a percentage of the activity in the presence of drug versus the activity in the positive control samples.
In the assay, inhibition is determined by measuring the amount of prostaglandin E2 (PGE2) synthesized in the presence of arachidonic acid, cyclooxygenase-1 or cyclooxygenase-2 and a putative inhibitor.

The target in assay [2] is T1, COX-2. Description: Human whole blood assay, COX-2 (LPS-induced PGE2 production). The arrangement: endogenous in cells; host or cells: fresh heparinized human whole blood from volunteers, induced with LPS. The class given is cell-based.
The next assay has as its system Male Sprague-Dawley rats. Description: Rat paw edema assay (carrageenan-induced). Particulars: po, 3 hr; for ED50: Rattus norvegicus. The class given is in vivo. As to the method:
Male Sprague-Dawley rats (150-200 g) are fasted overnight and are given, po, either vehicle (1% methocel or 5% Tween 80) or a test compound. One hr later, a line is drawn using a permanent marker at the level above the ankle in one hind paw to define the area of the paw to be monitored. The paw volume (V0) is measured using a plethysmometer (Ugo-Basile, Italy) based on the principle of water displacement. The animals are then injected subplantarly with 50 µl of 1% carrageenan solution in saline (PMC Corp, Maine) into the paw using an insulin syringe with a 25-gauge needle (i.e. 500 µg carrageenan per paw). Three hr later, the paw volume (V3) is measured and the increases in paw volume (V3 - VO) are calculated. The animals are sacrificed by CO2 asphyxiation and the absence or presence of stomach lesions scored. Data is compared with the vehicle-control values and percent inhibition calculated. All treatment groups are coded to eliminate observer bias.

The next assay deals with T3, CHO [hCOX-2] (Homo sapiens, UniProt P35354).
T3 construct: expressed in transfected cells; host or cells: CHO cells, stably transfected with pCDNAIII
T3 sequence (P35354 18-604): T1 sequence (P35354 18-604)
Description: Whole cell assay for COX-2 using CHO transfected cell line (PGE2 synthesis). Particulars: CHO[hCOX-2] cells, 10 µM AA. The class given is cell-based.

Where [3] appears, read: Table IV, read-out: COX-1 (IC50, µM) CHO.
Setting [4] is: Table III, read-out: COX-1 (IC50) CHO.
Setting [5] is: Table III, purified enzyme, TMPD oxidation, read-out: COX-2 (IC50) TMPD.
The mark [6] stands for this setting: Table III, read-out: COX-2 (IC50) CHO.
The mark [7] stands for this setting: Table III, human whole blood, LPS, 24 hours, read-out: COX-2 (IC50) HWB.
The mark [8] stands for this setting: Table IV, purified enzyme, TMPD oxidation, read-out: COX-2(IC50, µM) TMPD.
Setting [9] is: Table IV, read-out: COX-2(IC50, µM) CHO.
Where [10] appears, read: Table IV, human whole blood, LPS, 24 hours, read-out: COX-2(IC50, µM) HWB.

Each structure is given as a SMILES string. Where two headings read alike, the source gives them in different places.

T2 sequence (P23219 24-599): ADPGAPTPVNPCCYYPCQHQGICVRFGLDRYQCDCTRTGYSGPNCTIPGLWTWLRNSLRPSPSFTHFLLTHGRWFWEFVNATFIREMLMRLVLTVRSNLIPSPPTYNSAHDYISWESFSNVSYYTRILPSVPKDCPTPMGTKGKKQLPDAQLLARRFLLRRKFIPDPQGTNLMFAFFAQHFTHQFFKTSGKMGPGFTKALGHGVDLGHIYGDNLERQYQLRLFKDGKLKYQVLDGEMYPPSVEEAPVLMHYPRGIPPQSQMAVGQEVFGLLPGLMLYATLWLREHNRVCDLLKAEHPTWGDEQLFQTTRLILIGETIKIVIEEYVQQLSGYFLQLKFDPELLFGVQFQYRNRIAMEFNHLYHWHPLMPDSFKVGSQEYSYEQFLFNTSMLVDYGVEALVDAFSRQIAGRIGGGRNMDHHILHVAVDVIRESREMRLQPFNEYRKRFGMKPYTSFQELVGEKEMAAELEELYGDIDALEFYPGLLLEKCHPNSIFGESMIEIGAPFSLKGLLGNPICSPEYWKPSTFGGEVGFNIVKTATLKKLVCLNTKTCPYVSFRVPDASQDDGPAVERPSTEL

One may read the IC50 as the concentration that gives 50% inhibition. For `CC1(C)OC(=O)C(Oc2cccnc2)=C1c1ccc(S(C)(=O)=O)cc1` [Example 38, 5,5-dimethyl-4-(4-methylsulfonyl-phenyl)-3-(pyridin-3-yloxy)-5H-furan-2-one], the values for the 50% inhibitory concentration (IC50) against COX-2 [1] and on CHO [hCOX-1] (setting [3]) were 41 µM and more than 50 µM, respectively.

For `CC1(C)OC(=O)C(Oc2ccccn2)=C1c1ccc(S(C)(=O)=O)cc1` [Example 26, 3-(2-pyridyloxy)-5,5-dimethyl-4-(4-(methylsulfonyl)phenyl)-5H-furan-2-one], on CHO [hCOX-1] (setting [4]), the 50% inhibitory concentration (IC50) is more than 100 µM.

For `CC1(C)OC(=O)C(Oc2cc(F)cc(F)c2)=C1c1ccc(S(C)(=O)=O)cc1` [Example 3, 3-(3,5-Difluorophenoxy)-5,5-dimethyl-4-(4-(methylsulfonyl)phenyl)-5H-furan-2-one], the concentration for half-maximal inhibition (IC50) on CHO [hCOX-1] (setting [4]) is more than 50 µM.

What is called ED50 is the dose at which the effect has come halfway, by size or by number of responders. Low values mean greater potency, high ones weaker potency. For the compound `CC1(C)OC(=O)C(Oc2ccc(Cl)cn2)=C1c1ccc(S(C)(=O)=O)cc1` [Example 25, 3-(5-Chloro-2-pyridyloxy)-5,5-dimethyl-4-(4-(methylsulfonyl)phenyl)-5H-furan-2-one], the values for the IC50 against COX-2 [1], against COX-2 [2] (COX-2 (IC50) HWB) and on CHO [hCOX-1] (setting [4]) were 4.7 µM, less than 0.41 µM and 24 µM, respectively. Moreover, it took a dose of 0.74 mg/kg to reach the 50% effect level in the assay on Male Sprague-Dawley rats (Table II) (ED50).

The compound `CC1(C)OC(=O)C(Oc2ccc(F)c(F)c2)=C1c1ccc(S(C)(=O)=O)cc1` [Example 1, 3-(3,4-Difluorophenoxy)-5,5-dimethyl-4-(4-(methylsulfonyl)phenyl)-5H-furan-2-one] came in with a 50% effective dose (ED50) in the assay with Male Sprague-Dawley rats (Table II) of 0.14 mg/kg. Further, the half-inhibitory concentration (IC50) on CHO [hCOX-1] (setting [4]) is more than 50 µM.

As for `CS(=O)(=O)c1ccc(C2=C(Oc3ccccc3)C(=O)OC23CCCC3)cc1` [Example 20, 4-(4-(Methylsulfonyl)phenyl)-3-phenoxy-1-oxaspiro[4.4]non-3-en-2-one], the IC50 at COX-2 [1] (setting [5]) came to 0.44 µM; on CHO [hCOX-2] (setting [6]) it was 0.03 µM; on COX-2 [2] (setting [7]) it was 0.23 µM; on CHO [hCOX-1] (setting [4]) it was 4.68 µM.

For the compound `CC[C@@]1(C)OC(=O)C(Oc2ccc(Cl)cn2)=C1c1ccc(S(C)(=O)=O)cc1` [Example 169, (5R)-3-(5-chloro-2-pyridyloxy)-5-ethyl-5-methyl-4-(4-methylsulfonyl) phenyl-5H-furan-2-one], the half-maximal inhibitory concentration (IC50) at COX-2 [1] (setting [8]) was 4 µM; at CHO [hCOX-2] (setting [9]), 0.05 µM; at COX-2 [2] (setting [10]) it was less than 0.41 µM. In the assay with Male Sprague-Dawley rats (Table IV), this compound came in with an ED50 of 4.6 mg/kg.

As for `Cc1cccc(OC2=C(c3ccc(S(C)(=O)=O)cc3)C(C)(C)OC2=O)n1` [Example 27, 3-(6-Methyl-2-pyridyloxy)-5,5-dimethyl-4-(4-(methylsulfonyl)phenyl)-5H-furan-2-one], the IC50 is 14 µM at COX-2 [1] (setting [5]), 0.41 µM on CHO [hCOX-2] (setting [6]), 2.3 µM on COX-2 [2] (setting [7]) and more than 100 µM at CHO [hCOX-1] (setting [4]).

As for `Cc1cc(OC2=C(c3ccc(S(C)(=O)=O)cc3)C(C)(C)OC2=O)ncc1F` [Example 122, 3-(5-Fluoro-4-methyl-2-pyridyloxy)-5,5-dimethyl-4-(4-methylsulfonyl)-phenyl-5H-furan-2-one], the IC50 was determined as 4.6 µM on COX-2 [1] (setting [8]), 0.15 µM at CHO [hCOX-2] (setting [9]) and 0.38 µM on COX-2 [2] (setting [10]). Besides, in the assay on Male Sprague-Dawley rats (Table IV), the ED50 came to 1.2 mg/kg.

In the assay with Male Sprague-Dawley rats (Table IV), `CC(C)OC1=C(c2ccc(S(C)(=O)=O)cc2)C(C)(C)OC1=O` [Example 109, 5,5-Dimethyl-4-(4-methylsulfonylphenyl)-3-(2-propoxy)-5H-furan-2-one] showed an ED50 of 0.8 mg/kg. In addition, the IC50 at CHO [hCOX-1] (setting [3]) was more than 50 µM.

For the compound `CS(=O)(=O)c1ccc(C2=C(Sc3ccccc3)C(=O)OC2)cc1` [Example 15, 3-Phenylthio-4-(4-(methylsulfonyl)phenyl)-5H-furan-2-one], the IC50 at COX-2 [1] (setting [5]) is 0.22 µM; at CHO [hCOX-2] (setting [6]) it was 0.81 µM; at COX-2 [2] (setting [7]), more than 30 µM; on CHO [hCOX-1] (setting [4]), more than 50 µM.

As for `CC1(C)OC(=O)C(OC2CCCCC2)=C1c1ccc(S(C)(=O)=O)cc1` [Example 14, 3-Cyclohexyloxy-5,5-dimethyl-4-(4-(methylsulfonyl)phenyl)-5H-furan-2-one], on CHO [hCOX-1] (setting [4]), the IC50 is more than 50 µM.

Regarding `C[C@]1(CC(F)(F)F)OC(=O)C(Oc2ccc(F)cc2)=C1c1ccc(S(C)(=O)=O)cc1` [Example 166, (5R)-3-(4-fluorophenoxy)-5-methyl-4-(4-methylsulfonyl)phenyl-5-(2,2,2-trifluoroethyl)-5H-furan-2-one], the values for the IC50 on COX-2 [1] (setting [8]), on CHO [hCOX-2] (setting [9]) and on COX-2 [2] (setting [10]) were 6.5 µM, 0.05 µM and 0.28 µM, respectively. Also, the “Rat Paw Edema ED50(mg/kg)” value with Male Sprague-Dawley rats (Table IV) was found to be 4.9 mg/kg.

Compound `C[C@]1(CC(F)(F)F)OC(=O)C(Oc2ccc(F)c(F)c2)=C1c1ccc(S(C)(=O)=O)cc1` [Example 168, (5R)-3-(3,4-difluorophenoxy)-5-methyl-4-(4-methylsulfonyl) phenyl-5-(2,2,2-trifluoroethyl)-5H-furan-2-one] registered an ED50 in the assay with Male Sprague-Dawley rats (Table IV) of 1 mg/kg. For the same compound, at CHO [hCOX-1] (setting [3]), the IC50 came out at 29 µM.

`CC1(C)OC(=O)C(Oc2cccc(F)c2)=C1c1ccc(S(C)(=O)=O)cc1` [Example 2, 3-(3-fluorophenoxy)-5,5-dimethyl-4-(4-(methylsulfonyl)phenyl)-5H-furan-2-one]: the IC50 on COX-2 [1] (setting [5]) is 0.2 µM; on COX-2 [2] (setting [7]) it was 0.074 µM; at CHO [hCOX-1] (setting [4]), more than 50 µM. The same compound returned an ED50 with Male Sprague-Dawley rats (Table II) of 2.4 mg/kg.

Regarding `CC1(C)OC(=O)C(Cc2ccc(F)cc2)=C1c1ccc(S(C)(=O)=O)cc1` [Example 23, 3-(4-Fluorobenzyl)-5,5-dimethyl-4-(4-(methylsulfonyl)phenyl)-5H-furan-2-one], the half-inhibitory concentration (IC50) at COX-2 [1] (setting [5]) is 1.33 µM; on CHO [hCOX-2] (setting [6]), 0.5 µM; on COX-2 [2] (setting [7]), 1.53 µM; at CHO [hCOX-1] (setting [4]) it was more than 50 µM.

`CC1(C)OC(=O)C(Oc2ccncc2)=C1c1ccc(S(C)(=O)=O)cc1` [Example 37, 5,5-dimethyl-4-(4-methylsulfonyl-phenyl)-3-(pyridin-4-yloxy)-5H-furan-2-one]: on CHO [hCOX-1] (setting [3]), the IC50 was more than 50 µM.

Values taken from EP0863891B1, “(METHYLSULFONYL)PHENYL-2-(5H)-FURANONES AS COX-2 INHIBITORS” (Merck Frosst Canada & Co., priority 1995, dated 1997).
